The record followed here is patent publication US20070148225A1 (ALCON, INC., priority 2005, published 2007).

Molecules are shown by their SMILES.

The assay deals with FGFR. The experiment in a line: Kinase inhibition, cell-free enzymatic assay. In kind it is biochemical. The settings on record: 1 mM ATP.

On to `Cc1ccc(F)c(NC(=O)Nc2ccc(-c3cccc4[nH]nc(N)c34)cc2)c1` [RTKi, N-[4-(3-amino-1H-indazol-4-yl)phenyl]-N′-(2-fluoro-5-methylphenyl) urea], for which the IC50 is > 12.5 µM.

A word on the IC50: it is the point on the concentration scale where inhibition reaches its midpoint. Low values mean greater potency, high ones weaker potency.
